Results reported in patent publication US11286414B2, “Sodium nitroprusside and nitrate metabolic inhibition of sulfate-reducing microbes to control sulfide production” (UTI Limited Partnership, priority 2017, dated 2022).

How the values were obtained:
4PW SRB consortia = assay: Comparison of SNP with other biocides on souring; format: cell-based, SRB consortia enriched from 4PW; conditions: 10 ppm added at start of growth, one month
SRB consortia = assay: Souring control in sand-packed bioreactors containing heavy oil; format: cell-based, SRB consortia from MHGC produced water (18PW)

Molecule	metabolic activity and growth of SRB (sulfide, sulfate, lactate concentrations) (4PW SRB consortia)	effect on sulfide concentration in the effluent (SRB consortia; injection of 2 PV CSBK-S with 85 ppm (1 mM) or 170 ppm (2 mM) nitrate)	sulfate reduction (SRB consortia; injection of 2 PV of 340 ppm (4 mM) nitrate)	concentration that inhibited sulfate reduction / controlled souring when used singly (SRB consortia; oil as electron donor)
cocodiamine	not effective at this low dosage	–	–	–
tetrakishydroxymethyl phosphonium sulfate [THPS]	not effective at this low dosage	–	–	–
O=CCCCC=O [Glut, glutaraldehyde]	not effective at this low dosage	–	–	–
O=[N+]([O-])[O-].[Na+] [nitrate, sodium nitrate]	–	did not affect the sulfide concentration in the effluent	inhibition of sulfate reduction was observed	340 ppm
benzalkonium chloride [BAC]	not effective at this low dosage	–	–	–
